Patent US9701670B2, “Pyrazolyl-ureas as kinase inhibitors” (RESPIVERT LIMITED, priority 2013, dated 2017)

Legend:
GSK 3α = GSK 3α (Homo sapiens (Human), UniProt P49840); test: GSK 3α enzyme inhibition (FRET, Z-LYTE), Method 2; format: biochemical; details: Method 2, different laboratory (Table 4a2); read-out: IC50 Values for Enzyme Inhibition GSK3α
Procedure: (§1) The enzyme inhibitory activities of compounds disclosed herein are determined by FRET using synthetic peptides labelled with both donor and acceptor fluorophores (Z-LYTE, Invitrogen Ltd., Paisley, UK).
The inhibitory activities of compounds of the invention against the GSK 3α enzyme isoform (Invitrogen), are evaluated by determining the level of activation/phosphorylation of the target peptide. The GSK3-α protein (500 ng/mL, 2.5 μL) is mixed with the test compound (2.5 μL at either 4 μg/mL, 0.4 μg/mL, 0.04 μg/mL, or 0.004 μg/mL) for 2 hr at RT. The FRET peptide (8 μM, 2.5 μL), which is a phosphorylation target for GSK3α, and ATP (40 μM, 2.5 μL) are then added to the enzyme/compound mixture and the resulting mixture incubated for 1 hr. Development reagent (protease, 5 μL) is added for 1 hr prior to detection in a fluorescence microplate reader (Varioskan® Flash, ThermoFisher Scientific).
(§2) In all cases, the site-specific protease cleaves non-phosphorylated peptide only and eliminates the FRET signal. Phosphorylation levels of each reaction are calculated using the ratio of coumarin emission (donor) over fluorescein emission (acceptor), for which high ratios indicate high phosphorylation and low ratios indicate low phosphorylation levels.

[1] = molecular target: T1, p38 MAPKα isoform (MAPK14) (Homo sapiens (Human), UniProt Q16539); test: p38 MAPKα enzyme inhibition (FRET, Z-LYTE), Method 1; format: biochemical; details: Method 1 (Table 4a1)
[2] = test system: Differentiated U937 cells; test: (l) Cell viability: MTT assay; format: cell-based, human; details: 1 μg/mL
Outline: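 MTT read-out (1 h, absorbance 550 nm) on d-U937 cells after pre-incubation with 1 or 10 μg/mL compound under two regimes: 4 h, 5% FCS, or 24 h, 10% FCS RPMI1640. Values are percent loss of viability relative to vehicle (0.5% DMSO), so increases are reported as negative.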

[3] = molecular target: T1, p38 MAPKα isoform (MAPK14); test: p38 MAPKα enzyme inhibition (FRET, Z-LYTE), Method 2; format: biochemical; details: Method 2, different laboratory (Table 4a2)
Procedure: as §1
The inhibitory activities of test compounds against the p38 MAPKα isoform (MAPK14: Invitrogen), are evaluated indirectly by determining the level of activation/phosphorylation of the down-stream molecule, MAPKAP-K2. The p38 MAPKα protein (80 ng/mL, 2.5 μL) is mixed with the test compound (2.5 μL of either 4 μg/mL, 0.4 μg/mL, 0.04 μg/mL or 0.004 μg/mL) for 2 hr at RT. […] The mixture is incubated for 1 hr at RT. Development reagent (protease, 5 μL) is added for 1 hr prior to detection in a fluorescence microplate reader (Varioskan® Flash, ThermoFisher Scientific).
as §2

[4] = test system: β-catenin in d-U937 cells; test: (m) Accumulation of β catenin in d-U937 cells; format: cell-based, human
Procedure: U937 cells, a human monocytic cell line, are differentiated into macrophage-type cells by incubation with PMA; (100 ng/mL) for between 48 to 72 hr. The cells are then incubated with either final concentrations of test compound or vehicle for 18 hr. The induction of β-catenin by the test compounds is stopped by replacing the media with 4% formaldehyde solution. Endogenous peroxide activity is neutralised by incubating with quenching buffer (100 μL, 0.1% sodium azide, 1% H2O2 in PBS with 0.05% Tween-20) for 20 min. The cells are washed with washing buffer (200 μL; PBS containing 0.05% Tween-20) and incubated with blocking solution (200 μL; 5% milk in PBS) for 1 hr, re-washed with washing buffer (200 μL) and then incubated overnight with anti-β-catenin antibody solution (50 μL) in 1% BSA/PBS (BD, Oxford, UK).
After washing with washing buffer (3×200 μL; PBS containing 0.05% Tween-20), cells are incubated with an HRP-conjugated secondary antibody solution (100 μL) in 1% BSA/PBS (Dako, Cambridge, UK) and the resultant signal is determined colourimetrically (OD: 450 nm with a reference wavelength of 655 nm) using TMB substrate (50 μL; R&D Systems, Abingdon, UK). This reaction is stopped by addition of 1N H2SO4 solution (50 μL). Cells are then washed with washing buffer and 2% crystal violet solution (50 μL) is applied for 30 min. After washing with washing buffer (3×200 μL), 1% SDS (100 μL) is added to each well and the plates are shaken lightly for 1 hr prior to measuring the absorbance at 595 nm (Varioskan® Flash, Thermo-Fisher Scientific).
The measured OD450-655 readings are corrected for cell number by dividing the OD450-655 by the OD595 readings. […] A signal less than 0.15 (15%) of that observed for the standard control is designated as “-ve”.

T1 sequence (Q16539 whole entry, canonical isoform): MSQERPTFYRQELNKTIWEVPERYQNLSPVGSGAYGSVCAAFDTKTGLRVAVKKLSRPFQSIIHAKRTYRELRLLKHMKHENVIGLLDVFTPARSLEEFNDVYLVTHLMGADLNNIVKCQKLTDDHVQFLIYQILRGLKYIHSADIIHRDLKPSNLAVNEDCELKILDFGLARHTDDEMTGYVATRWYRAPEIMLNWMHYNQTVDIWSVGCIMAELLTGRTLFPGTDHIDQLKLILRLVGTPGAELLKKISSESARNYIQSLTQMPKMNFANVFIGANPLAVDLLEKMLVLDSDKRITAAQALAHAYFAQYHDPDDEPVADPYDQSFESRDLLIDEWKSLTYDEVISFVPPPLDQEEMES
Chain of GSK 3α (P49840 whole entry): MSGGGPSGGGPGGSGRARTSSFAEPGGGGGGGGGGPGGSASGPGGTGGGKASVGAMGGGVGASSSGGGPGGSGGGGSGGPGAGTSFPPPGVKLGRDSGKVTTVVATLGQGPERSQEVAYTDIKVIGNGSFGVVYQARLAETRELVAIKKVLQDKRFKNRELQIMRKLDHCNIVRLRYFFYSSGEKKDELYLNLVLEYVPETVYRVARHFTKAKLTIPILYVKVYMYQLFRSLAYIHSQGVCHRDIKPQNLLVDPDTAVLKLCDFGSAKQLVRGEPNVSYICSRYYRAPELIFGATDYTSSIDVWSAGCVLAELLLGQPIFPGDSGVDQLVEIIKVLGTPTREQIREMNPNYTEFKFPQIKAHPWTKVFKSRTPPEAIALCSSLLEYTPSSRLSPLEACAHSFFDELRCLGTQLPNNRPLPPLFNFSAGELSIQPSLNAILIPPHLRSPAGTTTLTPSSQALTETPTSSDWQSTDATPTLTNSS

Compound	IC50 (GSK 3α) [µM]	IC50 [1] [µM]	Cell viability at time point in d-U937 cells 4 h [2]	Cell viability at time point in d-U937 cells 24 h [2]	IC50 [3] [µM]	% β-catenin induction ([4]; 1 μg/mL test compound) [%]	% β-catenin induction ([4]; 5 μg/mL test compound) [%]	% β-catenin induction ([4]; 10 μg/mL test compound) [%]
COc1cc(C(=O)NCCN2CCOCC2)ccc1Nc1nccc(Oc2ccc(NC(=O)Nc3cc(C(C)C)nn3-c3ccc(C)cc3)c3ccccc23)n1 [Example 36, 4-((4-((4-(3-(3-isopropyl-1-(p-tolyl)-1H-pyrazol-5-yl)ureido)naphthalen-1-yl)oxy)pyrimidin-2-yl)amino)-3-methoxy-N-(2-morpholinoethyl)benzamide]	13.2	0.013	−ve (−ve and +ve indicate that the value is below and above respectively, the no significant effect threshold, defined as 30% inhibition at 1 μg/mL at the time point indicated.)	−ve (−ve and +ve indicate that the value is below and above respectively, the no significant effect threshold, defined as 30% inhibition at 1 μg/mL at the time point indicated.)	–	–	–	–
COc1cc(Nc2nccc(Oc3ccc(NC(=O)Nc4cc(C5CC5)nn4-c4ccc(C)cc4)c4ccccc34)n2)cc(C(=O)NCCN2CCOCC2)c1 [Example 50, 3-((4-((4-(3-(3-cyclopropyl-1-(p-tolyl)-1H-pyrazol-5-yl)ureido)naphthalen-1-yl)oxy)pyrimidin-2-yl)amino)-5-methoxy-N-(2-morpholinoethyl)benzamide]	13.3	0.002	−ve (−ve and +ve indicate that the value is below and above respectively, the no significant effect threshold, defined as 30% inhibition at 1 μg/mL at the time point indicated.)	−ve (−ve and +ve indicate that the value is below and above respectively, the no significant effect threshold, defined as 30% inhibition at 1 μg/mL at the time point indicated.)	–	–	–	–
C#Cc1cc(Nc2nccc(Oc3ccc(NC(=O)Nc4cc(C(F)(F)C(F)(F)F)nn4-c4ccc(C)cc4)c4ccccc34)n2)cc(C(=O)NCCN2CCOCC2)c1 [Example 74, 3-Ethynyl-N-(2-morpholinoethyl)-5-((4-((4-(3-(3-(perfluoroethyl)-1-(p-tolyl)-1H-pyrazol-5-yl)ureido)naphthalen-1-yl)oxy)pyrimidin-2-yl)amino)benzamide]	12.1	–	–	–	1.21	–	–	–
C#Cc1cc(Nc2nccc(Oc3ccc(NC(=O)Nc4cc(C(C)C)nn4-c4ccc(C)cc4)c(Cl)c3Cl)n2)cc(C(N)=O)c1 [Example 89, 3-((4-(2,3-Dichloro-4-(3-(3-isopropyl-1-(p-tolyl)-1H-pyrazol-5-yl)ureido)-phenoxy)pyrimidin-2-yl)amino)-5-ethynylbenzamide]	15.3	–	–	–	–	–	–	–
C#Cc1cc(Nc2nccc(Oc3ccc(NC(=O)Nc4cc(C(C)(C)C)nn4-c4ccc(OC)cc4)c4ccccc34)n2)cc(C(=O)NCCOC)c1 [Example 84, 3-((4-((4-(3-(3-(tert-Butyl)-1-(4-methoxyphenyl)-1H-pyrazol-5-yl)ureido)-naphthalen-1-yl)oxy)pyrimidin-2-yl)amino)-5-ethynyl-N-(2-methoxyethyl)benzamide]	13.8	–	–	–	0.105	3	3	5
CCc1cc(NC(=O)Nc2ccc(Oc3ccnc(Nc4cc(OC)cc(C(=O)NCCN5CCOCC5)c4)n3)c3ccccc23)n(-c2ccc(C)cc2)n1 [Example 49, 3-((4-((4-(3-(3-ethyl-1-(p-tolyl)-1H-pyrazol-5-yl)ureido)naphthalen-1-yl)oxy)pyrimidin-2-yl)amino)-5-methoxy-N-(2-morpholinoethyl)benzamide]	13.5	0.002	−ve (−ve and +ve indicate that the value is below and above respectively, the no significant effect threshold, defined as 30% inhibition at 1 μg/mL at the time point indicated.)	−ve (−ve and +ve indicate that the value is below and above respectively, the no significant effect threshold, defined as 30% inhibition at 1 μg/mL at the time point indicated.)	–	–	–	–
